By EC50 is commonly meant the concentration at which the effect is half-maximal.

Structures are written as SMILES. Starred links: 1 amine or outer side, 2 acyl side, 3 side chain; linkers in the order of their positions; H or OH if unused. Non-standard residues stand in square brackets, D forms with d. Residues, ends and D or L forms follow the SMILES beside them. Groups on a side chain read outwards from the residue. *: point of attachment. C20 diacid = O=C(O)CCCCCCCCCCCCCCCCCCC(=O)*; C18 diacid = O=C(O)CCCCCCCCCCCCCCCCC(=O)*; γGlu = O=C(O)[C@H](CCC(=O)[*:2])N[*:1]; αMeF = C[C@](N)(Cc1ccccc1)C(=O)O; AEEA = NCCOCCOCC(=O)O; Aib = CC(C)(N)C(=O)O

The source of these data is US20250353891A1 (MEDIMMUNE LIMITED, priority 2022, published 2025).

Test [1] addresses human GLP-1 receptor (hGLP-1R) (Homo sapiens, UniProt P43220). Description: cAMP production (HTRF) in CHO cells expressing hGLP-1R. The format is cell-based. Also noted: expressed in transfected cells. The note with it: for EC50: Table 6, peptides modified at position 17, cAMP in CHO hGLP-1R cells, geometric mean, read-out: hGLP-1R EC50; for % Relative Potency Ratio: Table 6, % GLP-1R activity relative to GLP-1 / % GlucR activity relative to glucagon. The procedure, abridged:
(§1)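 Cells were resuspended in assay buffer at batch-optimized density, typically 1×10^5 cells/mL for hGLP-1R and 2×10^5 cells/mL for hGCGR. After 30 min incubation at room temperature with compound, cAMP was measured by two-step HTRF. EC50 values came from 4-parameter logistic fits of % Delta F.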
For orientation: Changes in cAMP serve as a functional read-out for many G protein-coupled receptors.

Test [2] deals with human glucagon receptor (hGCGR) (Homo sapiens, UniProt P47871). Description: cAMP production (HTRF) in CHO cells expressing hGCGR. The format is cell-based. Set-up: expressed in transfected cells. As to conditions: Table 6, peptides modified at position 17; cAMP in CHO hGCGR cells; geometric mean; read-out: hGluc-R EC50. The procedure, abridged: as §1
human glucagon receptor (hGCGR), sequence (P47871 26-477): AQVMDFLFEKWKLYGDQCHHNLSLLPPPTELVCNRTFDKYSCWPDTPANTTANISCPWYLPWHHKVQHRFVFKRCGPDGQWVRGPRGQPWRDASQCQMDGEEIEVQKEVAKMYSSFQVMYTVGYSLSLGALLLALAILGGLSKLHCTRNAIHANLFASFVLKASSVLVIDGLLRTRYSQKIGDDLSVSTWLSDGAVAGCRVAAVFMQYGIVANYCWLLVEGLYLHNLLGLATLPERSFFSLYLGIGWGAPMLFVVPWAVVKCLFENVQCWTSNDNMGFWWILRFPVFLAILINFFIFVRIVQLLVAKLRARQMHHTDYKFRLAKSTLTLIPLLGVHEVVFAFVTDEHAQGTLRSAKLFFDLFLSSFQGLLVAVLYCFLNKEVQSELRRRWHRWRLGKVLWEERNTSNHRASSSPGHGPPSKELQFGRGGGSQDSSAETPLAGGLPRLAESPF

human GLP-1 receptor (hGLP-1R), sequence (P43220 24-463): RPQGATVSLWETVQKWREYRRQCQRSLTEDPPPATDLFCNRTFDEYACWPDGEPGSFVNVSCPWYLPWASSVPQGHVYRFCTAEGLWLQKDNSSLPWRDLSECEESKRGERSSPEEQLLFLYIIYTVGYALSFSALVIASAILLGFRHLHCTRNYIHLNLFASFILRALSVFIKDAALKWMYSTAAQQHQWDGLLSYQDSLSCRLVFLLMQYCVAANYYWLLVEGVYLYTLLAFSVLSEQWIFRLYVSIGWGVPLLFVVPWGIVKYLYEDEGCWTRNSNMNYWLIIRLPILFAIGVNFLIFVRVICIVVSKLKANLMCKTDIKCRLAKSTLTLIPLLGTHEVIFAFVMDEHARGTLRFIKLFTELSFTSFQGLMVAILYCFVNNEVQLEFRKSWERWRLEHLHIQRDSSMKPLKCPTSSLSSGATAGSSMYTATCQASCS

For the compound `CC(C)C[C@H](NC(=O)[C@H](Cc1c[nH]c2ccccc12)NC(=O)[C@H](CCCNC(=N)N)NC(=O)[C@@H](NC(=O)[C@H](Cc1ccccc1)NC(=O)[C@H](CC(=O)O)NC(=O)[C@H](CCC(N)=O)NC(=O)[C@H](C)NC(=O)[C@H](CCCNC(=N)N)NC(=O)[C@H](CCCCNC(=O)COCCOCCNC(=O)COCCOCCNC(=O)CC[C@H](NC(=O)CCCCCCCCCCCCCCCCCCC(=O)O)C(=O)O)NC(=O)[C@H](CO)NC(=O)[C@H](CCC(=O)O)NC(=O)[C@H](CC(C)C)NC(=O)[C@](C)(Cc1ccccc1)NC(=O)[C@H](CCCCN)NC(=O)[C@H](CO)NC(=O)[C@@H](NC(=O)[C@H](CC(=O)O)NC(=O)[C@H](CO)NC(=O)[C@@H](NC(=O)[C@H](Cc1ccccc1)NC(=O)[C@@H](NC(=O)CNC(=O)[C@H](CCC(N)=O)NC(=O)C(C)(C)NC(=O)[C@@H](N)Cc1c[nH]cn1)[C@@H](C)O)[C@@H](C)O)C(C)C)C(C)C)C(=O)N[C@H](C(=O)N[C@@H](CCC(=O)O)C(=O)NC(C)(C)C(=O)NCC(N)=O)C(C)C` [Peptide 508] (H-H[Aib]QGTFTSDVSK[αMeF]LESK([AEEA-AEEA-γGlu-C20 diacid])RAQDFVRWLVE[Aib]G-NH2), the EC50 in test [1] stood at 0.0679 nM; in test [2] it was 2.8 nM. Moreover, the “% Relative Potency Ratio” value in test [1] is listed as 81.6.

Regarding `CC(C)C[C@H](NC(=O)[C@H](Cc1c[nH]c2ccccc12)NC(=O)[C@H](CCCNC(=N)N)NC(=O)[C@@H](NC(=O)[C@H](Cc1ccccc1)NC(=O)[C@H](CC(=O)O)NC(=O)[C@H](CCC(N)=O)NC(=O)[C@H](C)NC(=O)[C@H](CCCNC(=N)N)NC(=O)[C@H](CCCCNC(=O)COCCOCCNC(=O)COCCOCCNC(=O)CC[C@H](NC(=O)CCCCCCCCCCCCCCCCCCC(=O)O)C(=O)O)NC(=O)[C@H](CO)NC(=O)[C@H](CCC(=O)O)NC(=O)[C@H](CC(C)C)NC(=O)[C@](C)(Cc1ccccc1)NC(=O)[C@H](CCCCN)NC(=O)[C@H](CO)NC(=O)[C@@H](NC(=O)[C@H](CC(=O)O)NC(=O)[C@H](CO)NC(=O)[C@@H](NC(=O)[C@H](Cc1ccccc1)NC(=O)[C@@H](NC(=O)CNC(=O)[C@H](CCC(N)=O)NC(=O)C(C)(C)NC(=O)[C@@H](N)Cc1c[nH]cn1)[C@@H](C)O)[C@@H](C)O)C(C)C)C(C)C)C(=O)N[C@@H](CC(C)C)C(=O)NC(C)(C)C(=O)N[C@H](C(=O)N[C@@H](CCC(=O)O)C(=O)O)[C@@H](C)O` [Peptide 509] (H-H[Aib]QGTFTSDVSK[αMeF]LESK([AEEA-AEEA-γGlu-C20 diacid])RAQDFVRWLL[Aib]TE-OH; N-terminus assumed), the EC50 worked out at 0.594 nM in test [1] and 3.02 nM in test [2]. In addition, the “% Relative Potency Ratio” value in test [1] is 10.1.

`CC(C)C[C@H](NC(=O)[C@H](Cc1c[nH]c2ccccc12)NC(=O)[C@H](CCCNC(=N)N)NC(=O)[C@@H](NC(=O)[C@H](Cc1ccccc1)NC(=O)[C@H](CC(=O)O)NC(=O)[C@H](CCCNC(=N)N)NC(=O)[C@H](C)NC(=O)[C@H](CCCNC(=N)N)NC(=O)[C@H](CCCCNC(=O)COCCOCCNC(=O)COCCOCCNC(=O)CC[C@H](NC(=O)CCCCCCCCCCCCCCCCCCC(=O)O)C(=O)O)NC(=O)[C@@H](NC(=O)[C@H](CC(=O)O)NC(=O)[C@H](CC(C)C)NC(=O)[C@](C)(Cc1ccccc1)NC(=O)[C@H](CCCCN)NC(=O)[C@H](CO)NC(=O)[C@@H](NC(=O)[C@H](CC(=O)O)NC(=O)[C@H](CO)NC(=O)[C@@H](NC(=O)[C@H](Cc1ccccc1)NC(=O)[C@@H](NC(=O)CNC(=O)[C@H](CCC(N)=O)NC(=O)C(C)(C)NC(=O)[C@@H](N)Cc1c[nH]cn1)[C@@H](C)O)[C@@H](C)O)C(C)C)[C@@H](C)O)C(C)C)C(=O)N[C@@H](CC(C)C)C(=O)NC(C)(C)C(=O)N[C@@H](CCC(=O)O)C(=O)O` [Peptide 510] (H-H[Aib]QGTFTSDVSK[αMeF]LDTK([AEEA-AEEA-γGlu-C20 diacid])RARDFVRWLL[Aib]E-OH; N-terminus assumed): in test [1], the 50% effective concentration (EC50) is 0.176 nM and the “% Relative Potency Ratio” value came to 1.3. The EC50 in test [2] stood at 0.118 nM.

For the compound `CC(C)C[C@H](NC(=O)[C@H](Cc1c[nH]c2ccccc12)NC(=O)[C@H](CCCNC(=N)N)NC(=O)[C@@H](NC(=O)[C@H](Cc1ccccc1)NC(=O)[C@H](CC(=O)O)NC(=O)[C@H](CCCNC(=N)N)NC(=O)[C@H](C)NC(=O)[C@H](CCCNC(=N)N)NC(=O)[C@H](CCCCNC(=O)COCCOCCNC(=O)COCCOCCNC(=O)CC[C@H](NC(=O)CCCCCCCCCCCCCCCCCCC(=O)O)C(=O)O)NC(=O)[C@@H](NC(=O)[C@H](CC(=O)O)NC(=O)[C@H](CC(C)C)NC(=O)[C@](C)(Cc1ccccc1)NC(=O)[C@H](CCCCN)NC(=O)[C@H](CO)NC(=O)[C@@H](NC(=O)[C@H](CC(=O)O)NC(=O)[C@H](CO)NC(=O)[C@@H](NC(=O)[C@H](Cc1ccccc1)NC(=O)[C@@H](NC(=O)CNC(=O)[C@H](CCC(N)=O)NC(=O)C(C)(C)NC(=O)[C@@H](N)Cc1c[nH]cn1)[C@@H](C)O)[C@@H](C)O)C(C)C)[C@@H](C)O)C(C)C)C(=O)N[C@@H](CC(C)C)C(=O)NC(C)(C)C(=O)N[C@@H](CCC(=O)O)C(N)=O` [Peptide 511] (H-H[Aib]QGTFTSDVSK[αMeF]LDTK([AEEA-AEEA-γGlu-C20 diacid])RARDFVRWLL[Aib]E-NH2; N-terminus assumed), in test [1], the EC50 is 0.118 nM and the “% Relative Potency Ratio” value turned out to be 2.4. Further, the EC50 in test [2] turned out to be 0.14 nM.

In the case of `CC(C)C[C@H](NC(=O)[C@H](CC(C)C)NC(=O)[C@H](Cc1c[nH]c2ccccc12)NC(=O)[C@H](CCCNC(=N)N)NC(=O)[C@@H](NC(=O)[C@](C)(Cc1ccccc1)NC(=O)[C@H](CC(=O)O)NC(=O)[C@H](CCC(N)=O)NC(=O)[C@H](C)NC(=O)[C@H](CCCNC(=N)N)NC(=O)[C@H](CCCCNC(=O)COCCOCCNC(=O)COCCOCCNC(=O)CC[C@H](NC(=O)CCCCCCCCCCCCCCCCC(=O)O)C(=O)O)NC(=O)[C@@H](NC(=O)[C@H](CC(=O)O)NC(=O)[C@H](CC(C)C)NC(=O)[C@](C)(Cc1ccccc1)NC(=O)[C@H](CCCCN)NC(=O)[C@H](CO)NC(=O)[C@@H](NC(=O)[C@H](CC(=O)O)NC(=O)[C@H](CO)NC(=O)[C@@H](NC(=O)[C@](C)(Cc1ccccc1)NC(=O)[C@@H](NC(=O)CNC(=O)[C@H](CCC(N)=O)NC(=O)C(C)(C)NC(=O)[C@@H](N)Cc1c[nH]cn1)[C@@H](C)O)[C@@H](C)O)C(C)C)[C@@H](C)O)C(C)C)C(=O)N[C@@H](C)C(=O)NC(C)(C)C(=O)NCC(N)=O` [Peptide 512] (H-H[Aib]QGT[αMeF]TSDVSK[αMeF]LDTK([AEEA-AEEA-γGlu-C18 diacid])RAQD[αMeF]VRWLLA[Aib]G-NH2; N-terminus assumed), the EC50 was 0.159 nM in test [1] and 2.31 nM in test [2]. The “% Relative Potency Ratio” value in test [1] was 28.7.

For the compound `CC(C)C[C@H](NC(=O)[C@H](CC(C)C)NC(=O)[C@H](Cc1c[nH]c2ccccc12)NC(=O)[C@H](CCC(N)=O)NC(=O)[C@@H](NC(=O)[C@](C)(Cc1ccccc1)NC(=O)[C@H](CC(=O)O)NC(=O)[C@H](CCCNC(=N)N)NC(=O)[C@H](C)NC(=O)[C@H](CCCNC(=N)N)NC(=O)[C@H](CCCCNC(=O)COCCOCCNC(=O)COCCOCCNC(=O)CC[C@H](NC(=O)CCCCCCCCCCCCCCCCC(=O)O)C(=O)O)NC(=O)[C@@H](NC(=O)[C@H](CC(=O)O)NC(=O)[C@H](CC(C)C)NC(=O)[C@](C)(Cc1ccccc1)NC(=O)[C@H](CCCCN)NC(=O)[C@H](CO)NC(=O)[C@@H](NC(=O)[C@H](CC(=O)O)NC(=O)[C@H](CO)NC(=O)[C@@H](NC(=O)[C@](C)(Cc1ccccc1)NC(=O)[C@@H](NC(=O)CNC(=O)[C@H](CCC(N)=O)NC(=O)C(C)(C)NC(=O)[C@@H](N)Cc1c[nH]cn1)[C@@H](C)O)[C@@H](C)O)C(C)C)[C@@H](C)O)C(C)C)C(=O)N[C@@H](C)C(=O)NC(C)(C)C(=O)NCC(N)=O` [Peptide 513] (H-H[Aib]QGT[αMeF]TSDVSK[αMeF]LDTK([AEEA-AEEA-γGlu-C18 diacid])RARD[αMeF]VQWLLA[Aib]G-NH2), the EC50 was 0.0938 nM in test [1] and 1.34 nM in test [2]. The “% Relative Potency Ratio” value in test [1] stood at 28.3.

As to `CC(C)C[C@H](NC(=O)[C@H](Cc1c[nH]c2ccccc12)NC(=O)[C@H](CCC(N)=O)NC(=O)[C@@H](NC(=O)[C@H](Cc1ccccc1)NC(=O)[C@H](CC(=O)O)NC(=O)[C@H](CCCNC(=N)N)NC(=O)[C@H](C)NC(=O)[C@H](C)NC(=O)[C@H](CCCCNC(=O)COCCOCCNC(=O)COCCOCCNC(=O)CC[C@H](NC(=O)CCCCCCCCCCCCCCCCC(=O)O)C(=O)O)NC(=O)[C@@H](NC(=O)[C@H](CC(=O)O)NC(=O)[C@H](CC(C)C)NC(=O)[C@](C)(Cc1ccccc1)NC(=O)[C@H](CCCCN)NC(=O)[C@H](CO)NC(=O)[C@@H](NC(=O)[C@H](CC(=O)O)NC(=O)[C@H](CO)NC(=O)[C@@H](NC(=O)[C@H](Cc1ccccc1)NC(=O)[C@@H](NC(=O)CNC(=O)[C@H](CCC(N)=O)NC(=O)C(C)(C)NC(=O)[C@@H](N)Cc1c[nH]cn1)[C@@H](C)O)[C@@H](C)O)C(C)C)[C@@H](C)O)C(C)C)C(=O)N[C@@H](CC(C)C)C(=O)N[C@@H](CCC(=O)O)C(=O)NC(C)(C)C(=O)NCC(N)=O` [Peptide 514] (H-H[Aib]QGTFTSDVSK[αMeF]LDTK([AEEA-AEEA-γGlu-C18 diacid])AARDFVQWLLE[Aib]G-NH2; N-terminus assumed), in test [1], the EC50 is 0.0767 nM and the “% Relative Potency Ratio” value was found to be 35.4. In addition, in test [2], the EC50 turned out to be 1.37 nM.
